The subject of assay [1] is NMDA receptor-mediated component of the EPSP. The assay can be described thus: Current clamp EPSP recording in CA1 pyramidal cells. In kind it is cell-based, rat. The following applies: 50 μM APV. The method, then: (§1) Young rats (Sprague-Dawley, age P15-P20) or mice (C57/B16, age P14-19) were deeply anesthetized with isoflurane and decapitated. The brain was rapidly removed and submerged in an ice-cold oxygenated artificial cerebrospinal fluid (ACSF) comprised of 130 mM NaCl, 24 mM NaHCO3, 3.5 mM KCl, 1.25 mM NaH2PO4, 1 mM CaCl2,3 mM MgCl2, and 10 mM glucose saturated with 95% O2/5% CO2, at pH 7.4.
The hemisected brain was glued onto the stage of a vibrating microtome (Leica VT1000 S) and sections of 300 μm thickness were cut and stored in an incubation chamber at room temperature for about 1 h before use. […]
(§2) Synaptic responses were evoked by applying 0.1 ms current injection (1-100 μA) to a bipolar stimulating electrode placed in the stratum radiatum. Thrombin (Calbiochem) concentration was determined as described by Gingrich et al. (2000) using conversion of 1 U/ml=10 nM. […]
A series of current clamp experiments were carried out to directly measure the effects of PAR1 activation on the NMDA receptor-mediated component of the EPSP recorded in the presence of 1.5 mM Mg^2+. […]

Assay [2] concerns synaptic NMDA receptors. Nature of the assay: Miniature EPSC analysis in CA1 pyramidal cells. It counts as cell-based, rat. The settings on record: APV 50 μM. The text has this: Miniature EPSCs (mEPSCs) were digitized at 10 KHz and the records were filtered with a digital Gaussian filter (−3 dB) with a cutoff frequency of 1 kHz. The mEPSCs were automatically detected and grouped based on an amplitude threshold of 10 pA and a rise time between 0 to 5 (fast rise time) and 5 to 10 ms (slow rise time); a small number of apparent mEPSCs with rise times slower than 10 ms were not studied further. Selected mEPSCs were scaled, averaged, and fitted with a sum of two exponential functions,
Response Amplitude(t)=Amplitude1exp(−time/τ1)+Amplitude2exp(−time/τ2).
If the first decay constant (τ1) and the second decay constant (τ2) were within 10%, the curve was subsequently refitted with a single exponential function. Both the frequency and the peak amplitude of detected events were analyzed. […] All data were acquired, stored, and analyzed using pClamp 8 (Axon Instruments, Foster City, Calif.) and Mini Analysis Program (Synaptosoft). […]
To investigate the effects of PAR1 activation on synaptic NMDA receptors in normal concentrations of Mg^2+ (1.5 mM), the inventors recorded spontaneous miniature excitatory postsynaptic currents (mEPSCs) at −60 mV in the presence of 0.5 μM TTX to look for changes in the amplitude and decay kinetics of individual synaptic currents.

In assay [3] the test system is PAR1−/− cortical neurons on wild-type astrocyte monolayer. Nature of the assay: PAR1−/− cortical neurons co-cultured on wild-type astrocytes: dendritic Ca2+ and voltage clamp. In kind it is cell-based, mouse. The method, then: For an astrocyte-neuron co-culture, a monolayer of wild-type astrocytes was grown to 70-100% confluency (7-14 days in culture). Subsequently, the cortex from a P0 to P5 PAR1−/− mouse (Connolly et al., 1996) was dissected free of meninges and digested for 30 min in 1 mg/ml trypsin at 37° C. PAR1−/− mice were >99% C57B1/6 (>7 backcrossings), and wild-type mice were from a colony derived from PAR1−/− littermates.
All experiments were done within 3 generations of establishing the homozygous colony. The cortical cells were plated at low density on top of the monolayer of wild-type astrocytes obtained in above Example 1.1. Neurons were used for Ca^2+ imaging after 1-5 days in culture.
Whole-cell perforated-patch recording from cultured cortical neurons or HEK cells under voltage clamp (holding potential −60 mV) was made with an Axopatch 200B amplifier (Axon Instruments, Union City, Calif.). The recording chamber was continually perfused with a recording solution comprised of 150 mM NaCl, 3 mM KCl, 2 mM CaCl2, 5.5 mM glucose, and 10 mM HEPES (pH 7.4 by NaOH; osmolality adjusted to 315-320 mOsm with sucrose). Recording electrodes (4-7 MΩ) were filled with (in mM) 150 mM CsMeSO4, 10 mM NaCl, 0.5 CaCl2, 10 mM HEPES, and 25-50 μg/ml gramicidin D (pH adjusted to 7.3 with CsOH and osmolality adjusted to 310 mOsm with sucrose). It took 20-30 min to achieve acceptable perforation with series resistance ranging from 30-60 MΩ. All electrophysiological data from cultured neurons cells in this study were collected at room temperature (23-26° C.).
After a 20 min recovery, the bath perfusion was stopped and TFLLR was applied by brief (<1 sec) pressure ejection onto the astrocyte hosting the dye-loaded neuron in a static bath condition. Changes in fluorescence were monitored in a number of dendritic processes (schematized in FIGS. 8a and 8b).

The test system of assay [4] is synaptic NMDA receptors. Nature of the assay: Evoked NMDA EPSC current-voltage relationship in CA1 pyramidal cells. It counts as cell-based, rat. The settings on record: 100 μM APV. The method, then: as §1
Slices were placed on the stage of an upright microscope underneath a platinum and nylon restraining grid, and superfused with oxygenated ACSF at room temperature (23° C.), some experiments are performed at 34° C. by a temperature controller (TC-344B, Warner, Hamden). The standard ACSF recording solution was comprised of 130 mM NaCl, 24 mM NaHCO3, 3.5 mM KCl, 1.25 mM NaH2PO4, 1.5 mM CaCl2, 1.5 mM MgCl2, and 10 mM glucose saturated with 95% O2/5% CO2, at pH 7.4. […]
as §2
EPSCs were evoked by electrical stimulation of Schaffer collateral axons in the CA1 stratum radiatum, and recorded from CA1 pyramidal neurons under voltage clamp. […]

The test system of another assay is CA1 pyramidal cells. The assay can be described thus: Current clamp membrane potential of CA1 pyramidal cells in hippocampal slices. In kind it is cell-based, rat. The following applies: APV itself. As for the experimental part:
as §1
The hemisected brain was glued onto the stage of a vibrating microtome (Leica VT1000 S) and sections of 300 μm thickness were cut and stored in an incubation chamber at room temperature for about 1 h before use. For voltage clamp experiments, the solution used to fill the electrodes was comprised of 140 mM Cs-MeSO4, 10 mM HEPES, 7 mM NaCl, 4 mM Mg-ATP, and 0.3 mM Na3-GTP; the solution for current clamp recordings was comprised of 140 mM K-MeSO4, 10 mM HEPES, 7 mM NaCl, 4 mM Mg-ATP, and 0.3 mM Na3-GTP, and supplemented with 1 mM QX314; and 1 mM QX314 was omitted from some current clamp recordings (e.g., FIG. 9e).
Slices were placed on the stage of an upright microscope underneath a platinum and nylon restraining grid, and superfused with oxygenated ACSF at room temperature (23° C.), some experiments are performed at 34° C. by a temperature controller (TC-344B, Warner, Hamden). The standard ACSF recording solution was comprised of 130 mM NaCl, 24 mM NaHCO3, 3.5 mM KCl, 1.25 mM NaH2PO4, 1.5 mM CaCl2, 1.5 mM MgCl2, and 10 mM glucose saturated with 95% O2/5% CO2, at pH 7.4. For some experiments 0.5-1 μM TTX, 10 μM NBQX, or 10-20 μM bicuculline were added to the extracellular solution, extracellular Mg^2+ was reduced to 5 μM, and/or extracellular Ca^2+ raised to 2 mM.
Visually guided whole-cell patch recordings were obtained from CA1 pyramidal neurons in a voltage clamp or current clamp configuration using an Axopatch 200A (Axon Instruments) and a borosilicate patch pipette of 5-7 MΩ resistance. […] Records were filtered at 5 kHz and digitized at 20 kHz using a Digidata 1200 A/D board.
Synaptic responses were evoked by applying 0.1 ms current injection (1-100 μA) to a bipolar stimulating electrode placed in the stratum radiatum. Thrombin (Calbiochem) concentration was determined as described by Gingrich et al. (2000) using conversion of 1 U/ml=10 nM. TFLLR and thrombin were applied by gravity perfusion at 1.0 ml/min, with extensive washing of perfusion lines, chamber, and objective between experiments to remove all residual thrombin, which has been reported to irreversibly cleave and PAR1 at a pM concentration. Removal of all thrombin ensured that PAR1 receptors were not pre-cleaved by residual thrombin prior to experimentation.

For `N[C@H](CCCP(=O)(O)O)C(=O)O` [APV, D-2-amino-5-phosphono-valeric acid], the “effect on TFLLR potentiation of EPSP area” value in assay [1] is given as “reversed”. Further, the “effect on TFLLR-induced τ2” value in the assay on synaptic NMDA receptors [2] is “eliminated”. Also, the “peak amplitude of TFLLR-evoked current in presence of APV” value in assay [3] (30 μM TFLLR, 50 μM APV) amounted to 2.5±0.3 pA. Besides, in assay [3] (APV 50 μM), the “effect on TFLLR-induced dendritic fluorescence increase” value is recorded as “blocked”. Also, the “effect on NMDA component of evoked EPSCs” value in the assay with synaptic NMDA receptors [4] is reported as “blocked”. For the same compound, in the assay with CA1 pyramidal cells, the “effect on resting membrane potential of CA1 neurons” value is reported as 0.4±0.7 mV.

For the origin of these results see US20080299109A1, “MECHANISM OF ASTRICYTE-NEURON SIGNALING” (Korea Institute of Science and Technology, priority 2007, published 2008).
